Key:
[1] = system: gastric emptying and intestinal motility; assay: Charcoal transit model of postoperative ileus after abdominal surgery with cecal manipulation; format: in vivo, rat; conditions: charcoal distance 4 h after oral meal, percent of full intestinal length, male Sprague Dawley rats
From the text: The charcoal transit model is an accetable and established model to study the effects of abdominal surgery on intestinal motility. We followed the procedure as described by De Winter et al. (1997) (Reference: Effect of adrenergic and nitrergic blockade on experimental ileus in rats. British Journal of Pharmacology (1997) 120, 464-468. Benedicte Y. De Winter, Guy E. Boeckxstaens, Joris G. De Man, Tom G. Moreels, Arnold G. Herman & Paul A. Pelckmans). The model simulates the abdominal procedure in human and tests for gastric emptying and intestinal motility by the transfer of a charcoal meal fed to the animals.
Male Sprague Dawley rats, weighing 250-275 g (8 in group) were anesthetized with a xylazine/ketamine cocktail, injected IM, the abdomen was shaved and disinfected with alcohol and Betadyne. A 2.5 cm incision was made from the xyphoid process caudally. The intestinal contents was exteriorized onto wet gauze. The cecum was manipulated gently for 1 minute. The abdominal contents were replaced, the treatment was applied and the body wall closed with 4-0 PDS for the fascia and muscle layers. The skin was closed with wound clips. Treatment groups included two control groups, surgery (incision only) and naïve, and […], high and low dose of Tranilast gel, high and low dose of Tranilast ORC, as well as gel alone and ORC alone. 8 rats were included in each group with a total of 64 rats. The high and low dose Tranilast gel and gel alone treatments were prepared as described in Example 1. The high and low dose Tranilast ORC and ORC alone treatments were prepared as described in Example 2.
The rats were treated with an oral solution of charcoal (10%) in acacia gum (2%). Four hours following oral administration rats were euthanized with Euthasole. The intestines were exteriorized and the distance traveled by the charcoal meal was measured as well as the full length of the intestines (from the pylorus through the anus). Results are expressed as percent of distance traveled relative to the full length of the intestines.

adhesions = conditions: local delivery in gel (NaCMC) formulations at the surgical site; cited from earlier work

SMILES: COc1ccc(/C=C/C(=O)Nc2ccccc2C(=O)O)cc1OC [Tranilast]
- % GI Transfer ([1]; Gel preparation (3% Na-CMC), Tranilast high dose 18.0 mg applied locally): 93.04%
- % GI Transfer ([1]; Gel preparation (3% Na-CMC), Tranilast low dose 1.8 mg applied locally): 90.68%
- % GI Transfer ([1]; ORC preparation (INTERCEED mesh), Tranilast high dose 18.0 mg applied locally): 62.18%
- % GI Transfer ([1]; ORC preparation (INTERCEED mesh), Tranilast low dose 1.8 mg applied locally): 46.11%
- Effects on wound healing at the surgical sites (adhesions): no obvious effects on wound healing

Source: patent publication US20070286892A1, “COMPOSITIONS AND METHODS FOR PREVENTING OR REDUCING POSTOPERATIVE ILEUS AND GASTRIC STASIS IN MAMMALS” (priority 2006, published 2007)
